Experimental data: ChEMBL document CHEMBL1275553, “Pyrosequencing to detect mutations in FKS1 that confer reduced echinocandin susceptibility in Candida albicans” (2008)
In brackets after ≈: the same amount, converted by molar mass. Starred links: 1 amine or outer side, 2 acyl side, 3 side chain; linkers in the order of their positions; H or OH if unused. Positions of bridges follow the written chain, without caps; N, C: chain ends. Non-standard residues stand in square brackets, D forms with d. Residues, ends and D or L forms follow the SMILES beside them. *: point of attachment. hTyr(3S-OH,4S-OH,3'-OSO3H) = N[C@H](C(=O)O)[C@H](O)[C@@H](O)c1ccc(O)c(OS(=O)(=O)O)c1; pTerphenylCO(4''-OnC5H11) = CCCCCOc1ccc(-c2ccc(-c3ccc(C(=O)*)cc3)cc2)cc1; Orn(4R-OH,5R-OH) = O=C([C@H](C[C@@H](O)[C@@H](O)N[*:3])N[*:1])[*:2]; hTyr(3S-OH,4S-OH) = N[C@H](C(=O)O)[C@H](O)[C@@H](O)c1ccc(O)cc1; Pro(3S-OH,4S-Me) = C[C@H]1CN[C@H](C(=O)O)[C@H]1O; X1 = CCCCCOc1ccc(-c2cc(-c3ccc(C(=O)*)cc3)no2)cc1; Gln(3R-OH) = NC(=O)C[C@@H](O)[C@H](N)C(=O)O; Hyp = O=C(O)[C@@H]1C[C@@H](O)CN1

Columns and labels:
Assay type in all cases: functional
[1] = test system: Candida albicans; assay: Antifungal activity against Candida albicans 4254 expressing FKS1 F641S mutant after 24 hrs by broth microdilution method in presence of 50% human serum; conditions: Candida albicans, 4254, 24 h
[2] = test system: Candida albicans; assay: Antifungal activity against Candida albicans 5415 expressing FKS1 F645P/H mutant after 24 hrs by broth microdilution method; conditions: Candida albicans, 5415, 24 h
[3] = test system: Candida albicans; assay: Antifungal activity against Candida albicans 41509 expressing FKS1 F641S mutant after 24 hrs by broth microdilution method in presence of 50% human serum; conditions: Candida albicans, 41509, 24 h
[4] = test system: Candida albicans; assay: Antifungal activity against Candida albicans 42379 expressing FKS1 F645P mutant after 24 hrs by broth microdilution method; conditions: Candida albicans, 42379, 24 h
[5] = test system: Candida albicans; assay: Antifungal activity against Candida albicans 53264 expressing FKS1 F645P mutant after 24 hrs by broth microdilution method in presence of 50% human serum; conditions: Candida albicans, 53264, 24 h
[6] = test system: Candida albicans; assay: Antifungal activity against Candida albicans SC5314 expressing wild type FKS1 after 24 hrs by broth microdilution method; conditions: SC5314, 24 h
[7] = test system: Candida albicans; assay: Antifungal activity against Candida albicans 2762 expressing FKS1 F641S mutant after 24 hrs by broth microdilution method in presence of 50% human serum; conditions: Candida albicans, 2762, 24 h
[8] = test system: Candida albicans; assay: Antifungal activity against Candida albicans 41301 expressing FKS1 F641S mutant after 24 hrs by broth microdilution method; conditions: Candida albicans, 41301, 24 h
[9] = test system: Candida albicans; assay: Antifungal activity against Candida albicans 4715 expressing FKS1 F641S mutant after 24 hrs by broth microdilution method; conditions: Candida albicans, 4715, 24 h
[10] = test system: Candida albicans; assay: Antifungal activity against Candida albicans 4715 expressing FKS1 F641S mutant after 24 hrs by broth microdilution method in presence of 50% human serum; conditions: Candida albicans, 4715, 24 h
[11] = test system: Candida albicans; assay: Antifungal activity against Candida albicans 5415 expressing FKS1 F645P/H mutant after 24 hrs by broth microdilution method in presence of 50% human serum; conditions: Candida albicans, 5415, 24 h
[12] = test system: Candida albicans; assay: Antifungal activity against Candida albicans 42286 expressing wild type FKS1 after 24 hrs by broth microdilution method; conditions: Candida albicans, 42286, 24 h
[13] = test system: Candida albicans; assay: Antifungal activity against Candida albicans 4254 expressing FKS1 F641S mutant after 24 hrs by broth microdilution method; conditions: Candida albicans, 4254, 24 h
[14] = test system: Candida albicans; assay: Antifungal activity against Candida albicans 2762 expressing FKS1 F641S mutant after 24 hrs by broth microdilution method; conditions: Candida albicans, 2762, 24 h
[15] = test system: Candida albicans; assay: Antifungal activity against Candida albicans 41301 expressing FKS1 F641S mutant after 24 hrs by broth microdilution method in presence of 50% human serum; conditions: Candida albicans, 41301, 24 h
[16] = test system: Candida albicans; assay: Antifungal activity against Candida albicans 32746 expressing FKS1 F641S mutant after 24 hrs by broth microdilution method; conditions: Candida albicans, 32746, 24 h
[17] = test system: Candida albicans; assay: Antifungal activity against Candida albicans SC5314 expressing wild type FKS1 after 24 hrs by broth microdilution method in presence of 50% human serum; conditions: SC5314, 24 h
[18] = test system: Candida albicans; assay: Antifungal activity against Candida albicans 42286 expressing wild type FKS1 after 24 hrs by broth microdilution method in presence of 50% human serum; conditions: Candida albicans, 42286, 24 h
[19] = test system: Candida albicans; assay: Antifungal activity against Candida albicans 41509 expressing FKS1 F641S mutant after 24 hrs by broth microdilution method; conditions: Candida albicans, 41509, 24 h
[20] = test system: Candida albicans; assay: Antifungal activity against Candida albicans 53264 expressing FKS1 F645P mutant after 24 hrs by broth microdilution method; conditions: Candida albicans, 53264, 24 h
[21] = test system: Candida albicans; assay: Antifungal activity against Candida albicans 32746 expressing FKS1 F641S mutant after 24 hrs by broth microdilution method in presence of 50% human serum; conditions: Candida albicans, 32746, 24 h
[22] = test system: Candida albicans; assay: Antifungal activity against Candida albicans 42379 expressing FKS1 F645P mutant after 24 hrs by broth microdilution method in presence of 50% human serum; conditions: Candida albicans, 42379, 24 h
[23] = test system: Candida albicans; assay: Antifungal activity against Candida albicans 43001 expressing FKS1 F641S mutant after 24 hrs by broth microdilution method in presence of 50% human serum; conditions: Candida albicans, 43001, 24 h
[24] = test system: Candida albicans; assay: Antifungal activity against Candida albicans 43001 expressing FKS1 F641S mutant after 24 hrs by broth microdilution method; conditions: Candida albicans, 43001, 24 h
[25] = test system: Candida albicans; assay: Antifungal activity against Candida albicans 42996 expressing FKS1 F641S mutant after 24 hrs by broth microdilution method in presence of 50% human serum; conditions: Candida albicans, 42996, 24 h
[26] = test system: Candida albicans; assay: Antifungal activity against Candida albicans 42996 expressing FKS1 F641S mutant after 24 hrs by broth microdilution method; conditions: Candida albicans, 42996, 24 h

Structure (SMILES)	MIC [1]	MIC [2]	MIC [3]	MIC [4]	MIC [5]	MIC [6]	MIC [7]	MIC [8]	MIC [9]	MIC [10]	MIC [11]	MIC [12]	MIC [13]	MIC [14]	MIC [15]	MIC [16]	MIC [17]	MIC [18]	MIC [19]	MIC [20]	further results
CCCCCOc1ccc(-c2cc(-c3ccc(C(=O)N[C@H]4C[C@@H](O)[C@@H](O)NC(=O)[C@@H]5[C@@H](O)[C@@H](C)CN5C(=O)[C@H]([C@H](O)CC(N)=O)NC(=O)[C@H]([C@H](O)[C@@H](O)c5ccc(O)c(OS(=O)(=O)O)c5)NC(=O)[C@@H]5C[C@@H](O)CN5C(=O)[C@H]([C@@H](C)O)NC4=O)cc3)no2)cc1 [MICAFUNGIN] (X1-[Orn(4R-OH,5R-OH)]T[Hyp][hTyr(3S-OH,4S-OH,3'-OSO3H)][Gln(3R-OH)][Pro(3S-OH,4S-Me)]; lactam 1-C)	8 µg/mL	1 µg/mL (≈ 0.787 µM)	32 µg/mL	4 µg/mL (≈ 3.15 µM)	> 32 µg/mL	0.06 µg/mL (≈ 0.0472 µM)	16 µg/mL	0.5 µg/mL (≈ 0.394 µM)	1 µg/mL (≈ 0.787 µM)	16 µg/mL	32 µg/mL	1 µg/mL (≈ 0.787 µM)	0.5 µg/mL (≈ 0.394 µM)	1 µg/mL (≈ 0.787 µM)	16 µg/mL	1 µg/mL (≈ 0.787 µM)	1 µg/mL	8 µg/mL	0.5 µg/mL (≈ 0.394 µM)	4 µg/mL (≈ 3.15 µM)	MIC [21]: 16 µg/mL; MIC [22]: > 32 µg/mL; MIC [23]: 16 µg/mL; MIC [24]: 2 µg/mL (≈ 1.57 µM); MIC [25]: 32 µg/mL; MIC [26]: 1 µg/mL (≈ 0.787 µM)
CCCCCOc1ccc(-c2ccc(-c3ccc(C(=O)N[C@H]4C[C@@H](O)[C@@H](O)NC(=O)[C@@H]5[C@@H](O)[C@@H](C)CN5C(=O)[C@H]([C@@H](C)O)NC(=O)[C@H]([C@H](O)[C@@H](O)c5ccc(O)cc5)NC(=O)[C@@H]5C[C@@H](O)CN5C(=O)[C@H]([C@@H](C)O)NC4=O)cc3)cc2)cc1 [ANIDULAFUNGIN] ({pTerphenylCO(4''-OnC5H11)}-[Orn(4R-OH,5R-OH)]T[Hyp][hTyr(3S-OH,4S-OH)]T[Pro(3S-OH,4S-Me)]; lactam 1-C)	2 µg/mL	1 µg/mL (≈ 0.877 µM)	8 µg/mL	0.5 µg/mL (≈ 0.438 µM)	32 µg/mL	0.03 µg/mL (≈ 0.0263 µM)	4 µg/mL	0.25 µg/mL (≈ 0.219 µM)	0.25 µg/mL (≈ 0.219 µM)	8 µg/mL	16 µg/mL	0.125 µg/mL (≈ 0.11 µM)	0.125 µg/mL (≈ 0.11 µM)	0.5 µg/mL (≈ 0.438 µM)	8 µg/mL	0.25 µg/mL (≈ 0.219 µM)	0.5 µg/mL	1 µg/mL	0.5 µg/mL (≈ 0.438 µM)	1 µg/mL (≈ 0.877 µM)	MIC [21]: 8 µg/mL; MIC [22]: 8 µg/mL; MIC [23]: 4 µg/mL; MIC [24]: 0.5 µg/mL (≈ 0.438 µM); MIC [25]: 4 µg/mL; MIC [26]: 0.125 µg/mL (≈ 0.11 µM)
CC[C@H](C)C[C@H](C)CCCCCCCCC(=O)N[C@H]1C[C@@H](O)[C@@H](NCCN)NC(=O)[C@@H]2[C@@H](O)CCN2C(=O)[C@H]([C@H](O)CCN)NC(=O)[C@H]([C@H](O)[C@@H](O)c2ccc(O)cc2)NC(=O)[C@@H]2C[C@@H](O)CN2C(=O)[C@H]([C@@H](C)O)NC1=O [CASPOFUNGIN]	4 µg/mL	8 µg/mL (≈ 7.32 µM)	8 µg/mL	8 µg/mL (≈ 7.32 µM)	> 32 µg/mL	0.125 µg/mL (≈ 0.114 µM)	8 µg/mL	4 µg/mL (≈ 3.66 µM)	2 µg/mL (≈ 1.83 µM)	8 µg/mL	32 µg/mL	2 µg/mL (≈ 1.83 µM)	2 µg/mL (≈ 1.83 µM)	4 µg/mL (≈ 3.66 µM)	8 µg/mL	4 µg/mL (≈ 3.66 µM)	0.25 µg/mL	4 µg/mL	4 µg/mL (≈ 3.66 µM)	4 µg/mL (≈ 3.66 µM)	MIC [21]: 4 µg/mL; MIC [22]: > 32 µg/mL; MIC [23]: 8 µg/mL; MIC [24]: 4 µg/mL (≈ 3.66 µM); MIC [25]: 8 µg/mL; MIC [26]: 4 µg/mL (≈ 3.66 µM)
